Results published in PubChem BioAssay (NCI).
Where “and” joins values, the source holds several entries; their conditions need not be identical. Equal values may be shown once.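 Method: 48-hour compound exposure of cells in 96-well plates, five concentrations, linear interpolation of endpoints. Abbreviation: GI50, concentration required for 50% inhibition of growth. At the TGI there is no net growth.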

Legend:
Experiment in all cases: DTP human tumour cell line panel, 48 h
NCI-H460 lung = test system: NCI-H460 lung
HL-60(TB) leukemia = test system: HL-60(TB) leukemia
DU-145 prostate = test system: DU-145 prostate
SW-620 colon = test system: SW-620 colon
K-562 leukemia = test system: K-562 leukemia
MDA-MB-231 breast = test system: MDA-MB-231 breast
SR leukemia = test system: SR leukemia
SK-OV-3 ovarian = test system: SK-OV-3 ovarian
IGROV1 ovarian = test system: IGROV1 ovarian
ACHN renal = test system: ACHN renal

Row | SMILES | GI50 (NCI-H460 lung) [µM] | TGI (NCI-H460 lung) | GI50 (HL-60(TB) leukemia) [µM] | TGI (HL-60(TB) leukemia) | GI50 (DU-145 prostate) [µM] | TGI (DU-145 prostate) [µM] | GI50 (SW-620 colon) [µM] | TGI (SW-620 colon) | GI50 (K-562 leukemia) [µM] | TGI (K-562 leukemia) | GI50 (MDA-MB-231 breast) [µM] | TGI (MDA-MB-231 breast) [µM] | GI50 (SR leukemia) [µM] | TGI (SR leukemia) [µM] | GI50 (SK-OV-3 ovarian) [µM] | TGI (SK-OV-3 ovarian) | GI50 (IGROV1 ovarian) [µM] | TGI (IGROV1 ovarian) | GI50 (ACHN renal) [µM] | TGI (ACHN renal) [µM]
1 | C[C@]12CC[C@@H]3c4cc(OC(F)F)c(OS(N)(=O)=O)cc4CC[C@H]3[C@@H]1CC[C@@H]2OS(N)(=O)=O | 1.45 | 15.4 µM | 0.829 | 27.6 µM | 1.47 | 22.4 | 0.439 | 20.7 µM | 0.389 | > 100 µM | 3.05 | 28.2 | 0.441 | > 100 | 6.14 | 33.2 µM | 1.88 | 28.7 µM | 1.8 | 25.6
2 | COc1cc2ncnc(Nc3cccc(Cl)c3F)c2cc1OC(=O)N1CCN(C)C[C@H]1C | > 48.8 | > 82.4 µM | > 47.3 | > 70.5 µM | 7.35 | > 100 | > 44.9 | > 69.7 µM | > 30.7 | > 63.9 µM | 25.3 | > 59.5 | > 45.8 | > 71.8 | 1.12 | > 32.1 µM | 0.888 | > 63.9 µM | 0.273 | > 46.3
3 | COc1ccc(Nc2cc(C)nc(NCc3ccccc3)n2)cc1 | 4.09 | 17.6 µM | 4.91 | 27.6 µM | 10.6 | 23 | 4.2 | 20 µM | 2.69 | 15.3 µM | 3.45 | 16.1 | 3.32 | 13 | 8.84 | 23.8 µM | 6.67 | 23.4 µM | 4.44 | 17.7
4 | CC/C(=C(/c1ccc(O)cc1)c1ccc(OCCN)cc1)c1ccccc1 | 1.96 | 3.95 µM | 2.18 | 5.36 µM | 3.5 | 10.8 | 1.87 | 3.91 µM | 2.03 | 4.72 µM | 1.98 | 5.23 | 1.78 | 4.53 | 5.06 | 18 µM | 4.62 | 15.5 µM | 2.4 | 6.76
5 | O=[N+]([O-])c1ccc(C2=Nn3c(nnc3-c3ccc(Cl)cc3)SC2)o1 | – | 17.7 µM | – | 6.28 µM | – | 39.6 | – | 5.85 µM | – | 4.89 µM | – | 10.1 | – | 1.16 | – | 34.1 µM | – | 17.1 µM | – | 27.3
6 | C[C@@H]1CCC([C@@H](C)[C@H]2CC[C@H]3[C@@H]4CC[C@H]5C[C@@H](O)CC[C@]5(C)[C@H]4CC[C@]23C)=NC1 | – | 48.9 µM | – | > 21.2 µM | – | > 100 | – | > 100 µM | – | > 100 µM | – | > 84.6 | – | > 100 | – | > 100 µM | – | > 100 µM | – | > 61.5
7 | COc1cc(C(=O)N2CCN(c3ccccc3)CC2)c2ccccc2n1 | 0.0481 | 4.1 µM | 0.11 | – | 0.0648 | 0.468 | 0.0526 | > 100 µM | 0.0782 | > 100 µM | 0.301 | > 25.2 | 0.0537 | > 100 | 0.0993 | > 100 µM | 0.0965 | > 100 µM | 0.382 | > 100
8 | CCOC(=O)Nc1nc2ccc(Br)cc2s1 | > 50 | > 50 µM | > 50 | > 50 µM | > 50 | > 50 | > 50 | > 50 µM | > 50 | > 50 µM | > 50 | > 50 | > 50 | > 50 | > 50 | > 50 µM | > 50 | > 50 µM | > 50 | > 50
9 | CCc1nc(N)nc(N)c1-c1ccc2nnn(O)c2c1 | – | > 100 µM | – | > 100 µM | – | > 100 | – | > 100 µM | – | > 100 µM | – | > 100 | – | > 100 | – | > 100 µM | – | > 100 µM | – | > 100
10 | C[C@]12CC[C@@H]3c4cc(O)c(O)cc4CC[C@H]3[C@@H]1CC[C@@H]2O | 3.75 | 18.1 µM | 2.33 | 24.7 µM | 4.46 | > 100 | 2.73 | > 42.5 µM | 0.499 | > 100 µM | 4.61 | 52.5 | 0.576 | 48.5 | 4.19 | 61.8 µM | 11 | > 91.3 µM | 8.94 | 54.5
11 | CCOC(=O)c1cc(C(=O)c2cc(OC)c(OC)c(OC)c2)n2c1ccc1ccccc12 | 0.313 | > 100 µM | 0.338 | > 100 µM | 0.372 | > 100 | 0.157 | > 100 µM | 0.0604 | > 100 µM | 1.48 | > 100 | 0.0704 | > 100 | 1.02 | > 100 µM | 0.353 | > 100 µM | 0.997 | > 100
12 | CC(=O)Nc1c(I)c(NC(C)=O)c(I)c(C(=O)O)c1I | > 100 | > 100 µM | > 100 | > 100 µM | > 100 | > 100 | > 100 | > 100 µM | > 100 | > 100 µM | > 100 | > 100 | > 100 | > 100 | > 100 | > 100 µM | > 100 | > 100 µM | > 100 | > 100
13 | COc1cc2c(cc1Cc1cccc(Cl)c1F)c(=O)c(C(=O)O)cn2[C@@H](CO)C(C)C | 3.07 | 10.6 µM | 2.81 | 6.95 µM | 5.62 | 18.8 | 3.57 | 15 µM | 3.84 | 16.3 µM | 3.84 | 19.7 | 3.54 | 13.8 | 4.64 | 26.3 µM | 2.42 | 5.61 µM | 4.63 | 20.9
14 | S=C(NCCNC(=S)[S][Sn]([c]1ccccc1)([c]1ccccc1)[c]1ccccc1)[S][Sn]([c]1ccccc1)([c]1ccccc1)[c]1ccccc1 | 0.0169 | 0.0575 µM | 0.093 | 0.312 µM | 0.0181 | 0.0542 | 0.014 | 0.0379 µM | 0.0168 | 0.144 µM | 0.0207 | 0.0957 | 0.017 | 16.2 | 0.0231 | 0.0799 µM | 0.0429 | 0.216 µM | 0.0185 | 0.0624
15 | CC1=CCCC2C1(C)CCC(C)C2(C)Cc1cc(O)ccc1O (stereo not drawn) | 7.19 | 28.9 µM and 20.5 µM | 2.67 | 15.2 µM and 4.61 µM | – | 30.4 | 12.9 | 33.3 µM and 23.3 µM | 5.44 | 40.8 µM and 19.9 µM | – | 21.5 | – | 24.7 | – | 29.9 µM and 39.1 µM | 4.22 | 16.6 µM and 21.6 µM | – | 25.6
16 | CC(C)(C)[Si](C)(C)OC1[C@@H](O[Si](C)(C)C(C)(C)C)[C@@H](CNC(=O)NC(=O)CF)O[C@H]1n1cnc2c(NC(=O)Nc3ccccc3)ncnc21 (stereo partly drawn) | 8.32 | > 50 µM | 17.4 | > 50 µM | 17.7 | > 50 | 15.5 | > 50 µM | 14.7 | > 50 µM | 7.76 | 23.1 | 4.5 | 32 | > 50 | > 50 µM | 22.5 | > 50 µM | 8.67 | 38.6
17 | C=C1C(=O)O[C@H]2[C@H]1CC/C(C=Nc1c(N)cc(C(F)(F)F)cc1C(F)(F)F)=C\CC[C@@]1(C)O[C@@H]21 | 1.53 | 3.38 µM | 0.801 | 27.2 µM | 1.63 | 3.09 | 1.23 | 2.95 µM | 1.24 | 9.53 µM | 1.38 | 3.79 | 0.567 | 5.17 | 3.26 | 11.5 µM | – | – | 1.26 | 2.68
18 | COc1ccc2c(O)c(/C=C3\N=Nc4ccccc43)oc2c1C[C@@H]1CCNC[C@H]1F | 2.02 | 4.1 µM | 16 | 37.8 µM | 11.2 | 23.7 | 2.51 | 11.7 µM | – | – | 2.42 | 7.33 | 1.5 | 5.48 | 17.2 | 31.7 µM | 10.9 | 26.2 µM | 1.74 | 3.41
19 | COCCNc1ccc2c3c(cccc13)C(=O)N(CCN(C)C)C2=O | 4.63 | 11.4 µM | 6.78 | 14.4 µM | 9.41 | > 25 | 6.69 | > 25 µM | 4.66 | 11.5 µM | 12.9 | > 25 | 3.67 | 11.4 | 4.28 | > 25 µM | – | – | 4.64 | > 25
